One test concerns the target T1, CDK9/cyclin T1 (Homo sapiens, UniProt P50750).
T1 construct: C-terminal 6His-tagged, full-length recombinant, human cdk9 (MW=44 kDa); made in house; host or cells: Sf21 insect cells (baculovirus)
Kind of test: biochemical.

The subject of a further test is HT29. Briefly: cells. Format: cell-based, human. As to conditions: for IC50: Homo sapiens, HT-29, 48 h, read-out: IC50, cellular anti-proliferative assay.
The next test has as its system HS 578T. Briefly: cells. Format: cell-based, human. As to conditions: for IC50: Homo sapiens, Hs-578T, 48 h, read-out: IC50, cellular anti-proliferative assay.
In a further test the target is T2, CDK2/cyclin E (Homo sapiens, UniProt P24941).
T2 construct: C-terminal 6His-tagged, recombinant full-length CDK2 (MW=34 kDa); made in house; host or cells: Sf21 insect cells (baculovirus)
Kind of test: biochemical.

Another test has as its system MDA-MB-231. Briefly: cells. Format: cell-based, human. As to conditions: for IC50: Homo sapiens, MDA-MB-231, 48 h, read-out: IC50, cellular anti-proliferative assay.
A further test relates to SW-620. Kind of test: cells. It is filed as cell-based, human. As to conditions: for IC50: Homo sapiens, SW-620, 48 h, read-out: IC50, cellular anti-proliferative assay.
The test system of the next test is IGROV1. Kind of test: cells. Format: cell-based, human. As to conditions: for IC50: Homo sapiens, IGROV-1, 48 h, read-out: IC50, cellular anti-proliferative assay.
Another test deals with NCI-H322M. Kind of test: cells. It is filed as cell-based, human. As to conditions: for IC50: Homo sapiens, NCI-H322M, 48 h, read-out: IC50, cellular anti-proliferative assay.
The test system of a further test is RPMI-8226. Kind of test: cells. It is filed as cell-based, human. As to conditions: for IC50: Homo sapiens, RPMI-8226, 48 h, read-out: IC50, cellular anti-proliferative assay.
In a further test the test system is KM12. Kind of test: cells. It is filed as cell-based, human. As to conditions: for IC50: Homo sapiens, KM12, 48 h, read-out: IC50, cellular anti-proliferative assay.
The subject of the next test is M14. Kind of test: cells. It is filed as cell-based, human. As to conditions: for IC50: Homo sapiens, M14, 48 h, read-out: IC50, cellular anti-proliferative assay.
The subject of another test is MDA-MB-435. Briefly: cells. It is filed as cell-based, human. As to conditions: for IC50: Homo sapiens, MDA-MB-435, 48 h, read-out: IC50, cellular anti-proliferative assay.
The target of the next test is T3, CDK3/cyclin E (Homo sapiens, UniProt Q00526).
T3 construct: C-terminal 6His-tagged recombinant human full-length cdk3 (MW=36 kDa); made in house; host or cells: Sf21 insect cells (baculovirus)
T3 sequence (Q00526 whole entry): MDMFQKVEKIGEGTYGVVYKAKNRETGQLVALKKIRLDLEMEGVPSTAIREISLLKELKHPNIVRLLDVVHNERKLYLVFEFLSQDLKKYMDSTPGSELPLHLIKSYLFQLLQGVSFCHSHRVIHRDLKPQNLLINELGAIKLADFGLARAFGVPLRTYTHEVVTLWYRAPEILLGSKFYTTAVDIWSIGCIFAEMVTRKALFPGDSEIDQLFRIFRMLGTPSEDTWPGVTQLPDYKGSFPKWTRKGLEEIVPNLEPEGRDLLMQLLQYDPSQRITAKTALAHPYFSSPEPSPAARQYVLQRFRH
T3 sequence (P24864 whole entry, further chain): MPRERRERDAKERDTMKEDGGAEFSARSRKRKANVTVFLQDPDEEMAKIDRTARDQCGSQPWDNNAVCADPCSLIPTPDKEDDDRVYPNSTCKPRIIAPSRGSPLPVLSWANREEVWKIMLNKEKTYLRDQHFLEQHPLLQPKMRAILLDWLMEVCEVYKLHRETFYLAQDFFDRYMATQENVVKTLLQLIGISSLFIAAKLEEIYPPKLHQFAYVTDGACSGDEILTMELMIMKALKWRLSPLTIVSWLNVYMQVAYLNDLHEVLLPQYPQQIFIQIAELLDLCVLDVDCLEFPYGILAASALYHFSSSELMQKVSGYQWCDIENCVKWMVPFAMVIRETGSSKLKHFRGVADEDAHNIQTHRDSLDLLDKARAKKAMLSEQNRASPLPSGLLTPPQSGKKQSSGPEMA
Kind of test: biochemical.

We go through two molecules from patent US8962855B2 (priority 2011, dated 2015).

Each structure is given as a SMILES string.

Usually IC50 stands for the concentration that inhibits the measured activity by half.

T1 sequence (P50750 whole entry): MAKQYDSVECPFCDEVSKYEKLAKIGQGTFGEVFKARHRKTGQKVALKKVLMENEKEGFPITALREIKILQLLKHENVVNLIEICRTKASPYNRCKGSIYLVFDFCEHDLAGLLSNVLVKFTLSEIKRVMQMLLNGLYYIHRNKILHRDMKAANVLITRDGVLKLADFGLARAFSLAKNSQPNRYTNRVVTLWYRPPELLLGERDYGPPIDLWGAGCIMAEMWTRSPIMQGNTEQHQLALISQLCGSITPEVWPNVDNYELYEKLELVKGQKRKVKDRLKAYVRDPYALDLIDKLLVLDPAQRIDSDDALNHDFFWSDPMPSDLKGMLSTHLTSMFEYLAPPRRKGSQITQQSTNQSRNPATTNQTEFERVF
T1 sequence (O60563 whole entry partner): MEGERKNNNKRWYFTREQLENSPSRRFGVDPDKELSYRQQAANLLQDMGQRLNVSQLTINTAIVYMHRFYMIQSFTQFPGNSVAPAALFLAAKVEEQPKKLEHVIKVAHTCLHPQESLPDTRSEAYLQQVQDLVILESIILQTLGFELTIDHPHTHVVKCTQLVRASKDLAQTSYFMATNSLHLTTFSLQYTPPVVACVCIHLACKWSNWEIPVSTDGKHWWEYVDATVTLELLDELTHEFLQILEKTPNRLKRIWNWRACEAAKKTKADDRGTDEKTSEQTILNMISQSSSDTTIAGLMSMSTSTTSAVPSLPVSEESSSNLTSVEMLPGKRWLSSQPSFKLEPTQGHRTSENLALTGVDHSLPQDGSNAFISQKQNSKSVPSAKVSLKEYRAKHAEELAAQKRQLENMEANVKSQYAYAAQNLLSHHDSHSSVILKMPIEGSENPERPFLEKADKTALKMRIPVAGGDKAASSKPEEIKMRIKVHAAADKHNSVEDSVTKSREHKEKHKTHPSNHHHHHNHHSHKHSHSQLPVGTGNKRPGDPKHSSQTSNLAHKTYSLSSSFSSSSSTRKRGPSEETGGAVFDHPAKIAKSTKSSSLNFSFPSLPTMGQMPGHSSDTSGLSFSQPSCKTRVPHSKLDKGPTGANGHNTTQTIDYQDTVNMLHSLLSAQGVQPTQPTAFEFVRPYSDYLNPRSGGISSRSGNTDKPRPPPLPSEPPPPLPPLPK

Consider `CC(C)(C)c1cnc(CSc2cnc(NC(=O)Cc3ccc(N(CCCl)CCCl)cc3)s2)o1` [CY-201, 2-(4-(bis(2-chloroethyl)amino)phenyl)-N-(5-((5-tert-butyloxazol-2-yl)methylthio)thiazol-2-yl)acetamide], for which the IC50 against CDK9/cyclin T1 came out at 90.4 nM; in the test on HT29 it was 107 nM; in the test on HS 578T, 148 nM; on CDK2/cyclin E, 2.7 nM; with MDA-MB-231, 219 nM; in the test on SW-620 it was 98 nM. In addition, the IC50 in the test on IGROV1 stood at 107 nM; in the test on NCI-H322M, 148 nM; in the test with RPMI-8226 it was 269 nM; with KM12, 91 nM; in the test with M14, 58 nM; in the test with MDA-MB-435, 79 nM. This molecule also gave a concentration for half-maximal inhibition (IC50) at CDK3/cyclin E of 45.6 nM. The Ratio in the test with HT29 is given as 1227.4; with HS 578T, 1273.5; in the test with MDA-MB-231, 727.8; in the test on SW-620, 895.4; with IGROV1, 1088.9; with NCI-H322M it was 1380.4. Moreover, the Ratio in the test with RPMI-8226 turned out to be 280.5; with KM12, 1570.4; in the test on M14, 1083.9; in the test on MDA-MB-435 it was 1577.6. Further, the “fold more potent than the parental drug Chlorambucil” value with MDA-MB-435 was “more than 1,500 fold”.
For the molecule `O=C(O)CCCc1ccc(N(CCCl)CCCl)cc1` [Chlorambucil, reference compound], the “CDK IC50, CDK9/cyclin T1 (Chlorambucil)” value on CDK9/cyclin T1 is reported as “No activity”. The IC50 came to 132000 nM with HT29; 188000 nM in the test on HS 578T; 159000 nM in the test with MDA-MB-231; 87500 nM in the test on SW-620; 117000 nM in the test on IGROV1; 204000 nM with NCI-H322M. Moreover, the IC50 was determined as 75500 nM with RPMI-8226, 143000 nM with KM12, 62400 nM in the test on M14 and 125000 nM with MDA-MB-435. Besides, the “CDK IC50, CDK2/cyclin E (Chlorambucil)” value on CDK2/cyclin E is on record as “No activity”. Further, the “CDK IC50, CDK3/cyclin E (Chlorambucil)” value at CDK3/cyclin E is recorded as “No activity”.
